# Data from a melting point compilation (Tetko et al.; mined from patent text by program, amines drawn as free bases though some values may be those of a salt).
row,melting point,SMILES
1,124 to 125 °C,CCOc1nc(N)nc(C(F)(F)F)n1
2,154 to 156 °C,Cc1cc(NC(=O)c2c(Cl)cccc2Cl)c2nccc(NNC(C)C)c2c1
3,61 to 63 °C,CC(C)c1ccc(-c2ccc(Sc3ccccc3)s2)cc1
4,186 to 187 °C,O=C1Nc2cccc(I)c2C(=O)N2CC[C@@H]12
5,154 to 155 °C,Cc1ccc2c(c1)CC(=O)c1cc(CC(=O)O)ccc1O2
6,88 to 92 °C,O=[N+]([O-])c1ccc(C2OCCO2)cc1
7,142 to 145 °C,CC(=NC(=Nc1ccccc1)N1CCOCC1)NC(C)C
8,192 to 195 °C,Cc1ccc(NC(=O)c2ccc(N)c([N+](=O)[O-])c2)cc1C
9,110 to 112 °C,COC(=O)c1cc(O)ccc1OC
10,191 to 193 °C,COc1cc2c(c3c1OC(C)(C)C3)C(c1cccc(C(=O)NC3CCNC3=O)c1)=NC(C)(C)C2 (stereo not drawn)
11,158 to 160 °C,CCCCCCCCCCCCc1ccc(S(=O)(=O)Nc2nnc(CCCCCNC)s2)cc1
12,81 °C,CC1(C)C=Cc2cc(S(=O)(=O)C[N+](=O)[O-])ccc2O1
13,94 to 97 °C,CC(SC(=O)c1ccccc1)C(=O)NCCC(=O)O (stereo not drawn)
14,49 to 51 °C,COc1cc(N)c(C)c(OC)c1OC
15,142 to 144 °C,CC(=O)Nc1ccc(C(C)=O)c2c1OCCO2
16,72 to 76 °C,CSc1nc(I)ncc1Br
17,80 to 81 °C,COC(=O)Cc1cc(C)ccc1OCc1ccc(OCc2nc(-c3ccccc3)oc2C)cc1
18,242 to 244 °C,CCOC(=O)c1cc2c3n(ccc-2n1)CC(C(OCC)OCC)=N3
19,140 to 143 °C,CCOC(=O)C(C=O)Cc1ccn(Cc2ccccc2)c(=O)c1 (stereo not drawn)
20,132 °C,Cc1cccc(OCCCN2CCC(OC(c3ccccc3)c3ccccc3)CC2)c1NS(C)(=O)=O
21,207 to 209 °C,CC(C)c1c(/C=C/[C@@H]2C[C@@H](O)CC(=O)O2)n(-c2ccc(F)cc2)c(=O)c2ccccc12
22,48 °C,CCCCc1c(Cc2ccc(-c3ccccc3)c(-c3nnn[nH]3)c2)c(COC)nn1CC(F)(F)F
23,188 to 190 °C,COc1ccc2c(=O)c(C=O)coc2c1
24,114 to 115 °C,CCC1(CCCCN2CCN(c3ccccn3)CC2)C(=O)Nc2ccc(Br)cc21 (stereo not drawn)
25,133 to 135 °C,COC(=O)NC1(Cl)C=CC=CN1CC(COc1cccc2ccccc12)OC(=O)OC (stereo not drawn)

row,melting point,SMILES
1,130 °C,Cc1cc(C#N)ccc1-c1ccc(C=O)cc1
2,137 °C,CC(=O)OC1CSC(Oc2ccnc(-c3ccc(F)cc3C)c2)C(OC(C)=O)C1OC(C)=O (stereo not drawn)
3,212 to 214 °C,O=C(O)Cc1ccc2c(c1)C(=O)Cc1cccnc1S2
4,211 °C,O=C(N[C@H]1CC[C@H](CCN2CCN(c3nccc4ccoc34)CC2)CC1)C1CCOCC1
5,167 to 168 °C,O=S(=O)(Nc1nccnc1OCc1ccccn1)c1cccc(Cl)c1Cl
6,293 to 295 °C,Nn1c(=O)c(=O)[nH]c2c(Br)cc(F)cc21
7,131 to 135 °C,NCCc1cccc(N2C(=O)N(c3ccc(Cl)cc3Cl)Cc3cnc(Nc4ccccc4)nc32)c1
8,196 °C,Cc1cccc(-c2nc(O)cc(-c3ccccc3Cl)n2)n1
9,167 to 169 °C,Fc1cccc(F)c1-c1cnc(-c2ccc(Br)cc2)nn1
10,215 °C,Cc1nc2n(C)ncn2c(=O)c1CCO
11,123 to 125 °C,Clc1ccc(-c2c(Cl)nc(Cl)nc2-c2ccccc2)cc1
12,264 °C,O=c1[nH]n(-c2ccnc(N[C@H]3CC[C@H](O)CC3)n2)c2ccccc12
13,106 to 110 °C,CN(C)c1ccc(NC(=O)N(Cc2ccco2)C[C@H]2CCCC[C@H]2CN(Cc2ccco2)C(=O)Nc2ccc(N(C)C)cc2)cc1
14,260 to 262 °C,NC1=C(N)C(=O)C(N)=C(N)C1=O
15,315 to 317 °C,O=c1oc(=O)c2ccc3c4ccccc4sc4ccc1c2c43
16,111 to 113 °C,CCCCCCCOc1ccc(CNc2ccc(C(=O)OCC)cc2)cc1
17,126 to 127 °C,COc1ccc(OC)c2c1CCC(C#N)C2C#N (stereo not drawn)
18,192 to 194 °C,CC(C)n1c(C=O)c(-c2ccc(F)cc2)c(-c2ccccc2)c1C(=O)NCCc1cccnc1
19,129 to 132 °C,CS(=O)(=O)c1ccc(-n2nc(CNC(=O)Nc3ccc(C(F)(F)F)cc3)cc2-c2ccccc2)cc1
20,92 to 97 °C,FC(F)(F)c1ccc2c(C3CCN(CCCOc4cccc5[nH]ccc45)CC3)c[nH]c2c1
21,79 to 81 °C,NCc1cccc(O)c1
22,72 °C,CC(=O)C(C)=Cc1sccc1C
23,181 to 182 °C,Cc1nn(C2CCCCC2)c(N)c1C(N)=O
24,105 to 106 °C,COC[C@H](O)CNc1ccc2cc(OCc3ccccc3)ccc2c1
25,144 to 146 °C,CC(C)(C)c1ccc(Sc2ccsc2CN(O)C(N)=O)cc1

row,melting point,SMILES
1,179 to 181 °C,NNc1ccnc(-c2cccc(I)c2)n1
2,80 °C,CCCCc1nc2ncccc2[nH]1
3,269 °C,Cc1ccc2[nH]c(=O)c(C#N)c(N3CCN(C(=O)c4cccs4)CC3)c2c1
4,171 to 174 °C,COc1ccc(C2CNC(=O)N2C)cc1NC1CC2CCC1C2 (stereo not drawn)
5,165 to 167 °C,CCN(C)C(=O)c1cc(C)c(C(c2cc(F)ccc2F)S(=O)(=O)c2ccc(F)cc2)cn1 (stereo not drawn)
6,238 °C,Nc1ncnc2c([C@@H]3N[C@H](CO)[C@@H](O)[C@H]3O)c[nH]c12
7,146 to 147 °C,CCCCCC(=O)c1c(CBr)nc2cc(OC)c(OC)cc2c1-c1ccc(OC)c(OC)c1
8,147 to 152 °C,Cc1nn(-c2cc(O)c(Cl)cc2F)c(=O)n1C(F)F
9,167 °C,Oc1ccc2c(c1)CCCC(c1ccccc1)=C2c1ccc(OCCCCSCCCC(F)(F)C(F)(F)F)cc1
10,117 to 118 °C,CCCn1cc(Cc2ccc(C(=O)O)cc2OC)c2cc(CCCC(=O)N(C)C)ccc21
11,71 to 73 °C,CCCCCCCCCCCCCCCCCCOc1coc(CO)cc1=O
12,138 °C,O=C(O)c1cc(Cl)cs1
13,154 °C,CCC1CC(=O)N(Cc2ccc(C(=O)NC3CCCC3)cc2)N=C1c1ccc(OC)c(OC)c1 (stereo not drawn)
14,140 °C,O=[N+]([O-])c1cccc(Cc2nnn[nH]2)c1
15,221 to 222 °C,CCN1C(=O)C(C)Oc2ccc(-n3c(=O)cc(C(F)(F)F)n(C)c3=O)cc21 (stereo not drawn)
16,147 °C,CCOC(=O)c1nn(-c2ccc(Br)cc2)c2c1CCCC2
17,108 to 109 °C,Cc1ncoc1C(C)(O)c1ccccc1C(F)(F)F (stereo not drawn)
18,74 to 76 °C,Cc1cc(OCc2c(-c3c(Cl)cccc3Cl)noc2C(C)C)cnc1Oc1ccc(C(=O)O)cc1
19,79 to 80 °C,CCc1ncnc(NC(C)c2ccc([Si](C)(C)C)cc2)c1Cl (stereo not drawn)
20,159 to 164 °C,NS(=O)(=O)C1=CC2=C(OCCO)CCS(=O)(=O)C2S1 (stereo not drawn)
21,146 to 147 °C,CC(C)(NC(=O)C(O)C(Cc1ccc(S(C)(=O)=O)cc1)NC(=O)OCc1ccccc1)C(=O)O (stereo not drawn)
22,151 to 152 °C,CCCCCC(=O)c1c(Cn2cncn2)nc2cc(OC)c(OC)cc2c1-c1ccc(OC)c(OC)c1
23,114 to 117 °C,CCCOc1ccccc1-c1ccoc1C(=O)NNC(=O)c1ccc(O)c(C#N)c1
24,54 to 56 °C,C=COCCN1C(=O)CN(C)C1=O
25,114 to 116 °C,C=C(OCCc1nc(C(C)C)c(Sc2cc(Cl)cc(Cl)c2)n1C)C12CC3CC(CC(C3)C1)C2

row,melting point,SMILES
1,185 °C,COc1cccc2c1CCCC2=NNc1nc(-c2cccc([N+](=O)[O-])c2)cs1
2,112 to 114 °C,COc1ccccc1N1CCN(c2cc3ccccc3cn2)CC1
3,114 to 116 °C,CCOC1=CC2=CCC3C(CCC4(C)C3CCC4(C)C(C)=O)C2(C)CC1 (stereo not drawn)
4,134 °C,N#Cc1c(N2CCN(C(=O)c3ccco3)CC2)c2cc(Cl)cnc2n(Cc2cccc(F)c2)c1=O
5,210 °C,CCCCc1cc2c(Nc3ccc4[nH]ccc4c3)c(C#N)cnc2s1
6,235 to 236 °C,CCc1cnc2c(NC(=O)c3c(Cl)cccc3Cl)cccc2c1CCC(N)=O
7,220 to 222 °C,CN(C)N=Nc1cc(-c2ccccc2)sc1C(N)=O
8,130 to 132 °C,CC(N)CC(=O)Nc1ccc(Nc2ccccc2)cc1 (stereo not drawn)
9,184 °C,CCOC(=O)C(=NOC1CCCCO1)c1csc(NC(c2ccccc2)(c2ccccc2)c2ccccc2)n1 (stereo not drawn)
10,158 to 159 °C,CSc1nnc(-c2ccc3occ(-c4cc(F)ccc4F)c3c2)o1
11,93 to 95 °C,CC(=O)N1C=CC(C(C)=O)(c2ccccc2)C=C1
12,229 to 230 °C,O=C(O)c1cnn(-c2nc(-c3cccc(C(F)(F)F)c3)cs2)c1
13,112 °C,O=C(CCCCCN1CCN(c2cccc3c2CCC3)CC1)N1Cc2ccccc2C1
14,109 to 110 °C,CC(C)CC1(C(CCSc2cccs2)C(=O)NO)CCN(CCc2ccccc2)C1=O (stereo not drawn)
15,94.5 to 95.5 °C,CSc1ccc(C(=O)Cc2cccc(F)c2)cc1
16,337 to 339 °C,C[C@H](NC(=O)c1c[nH]c2ncc(-c3cn(-c4cc(Cl)ccc4F)cn3)nc12)C(C)(C)C
17,190 °C,CCOC(=O)c1cc(NCc2c(C)cccc2C)c2nc(C)n(C)c2c1
18,48 to 50 °C,C=CCOC(=O)c1ccc(OC(=O)C2CC3=C(C2)C(C)(C)CCC3(C)C)cc1
19,60 to 62 °C,CCC(COCc1cccc(Cl)c1)n1cnc2c(N)nc3ccccc3c21 (stereo not drawn)
20,97 to 99 °C,CNC(=NO)NCc1ccccc1
21,164 to 165 °C,Nc1nc(NC2CC2)c2ncn(/C=C3/CC3(CO)CO)c2n1
22,138 to 139 °C,CCn1nnc(C(C=O)=C(c2ccc(F)cc2)c2ccc(F)cc2)n1
23,142 to 145 °C,CCC(C(=O)c1ccc(C(C)C)c(OS(N)(=O)=O)c1C(C)C)c1ccccc1 (stereo not drawn)

row,SMILES,melting point
1,O=[N+]([O-])N=C1N(COCCBr)CCN1Cc1ccc(Cl)nc1,90 to 92 °C
2,CCC1(CCCBr)C(=O)NC(=O)NC1=O,138 to 140 °C
3,c1ccc(CN2CCC(n3nnc4ccccc43)CC2)cc1,110 to 111 °C
4,CCC(c1cccc(Br)c1)c1c(O)c2ccccc2oc1=O (stereo not drawn),168 to 172 °C
5,CN(C)C1(c2ccccc2)CCC(=CC(=O)NCCCc2ccccc2)CC1 (stereo not drawn),140 to 142 °C
